Values of other authors in patent US8883820B2, “Triazole derivatives as kinase inhibitors” (Cellzome Ltd., priority 2006, dated 2014).

How the values were obtained:
[1] = test system: collagen II-antibody-induced arthritis; conditions: oral, wildtype mice
[2] = test system: lymphocyte-dependent rheumatoid arthritis induced by direct collagen II injection; conditions: oral
[3] = test system: systemic lupus erythematosus (SLE); conditions: intraperitoneal administration

| Compound | cardioprotection (myocardial infarction; dosing after myocardial reperfusion (up to 3 hours after)) | edema and inflammation in response to multiple mediators (myocardial infarction; in vivo) | clinical and histologic signs of collagen II-antibody-induced arthritis [1] | joint inflammation and damage [2] | CD4+ T-cell populations [3] | glomerulonephritis [3] | life span [3] |
| --- | --- | --- | --- | --- | --- | --- | --- |
| Nc1nc(N)c2nc(-c3cccc(O)c3)c(-c3cccc(O)c3)nc2n1 [TG100-115] | provided cardioprotection | potently inhibits | – | – | – | – | – |
| O=C1NC(=O)/C(=C\c2ccc3nccnc3c2)S1 [AS-605240] | – | – | reduced clinical and histologic signs | decreased joint inflammation and damage | reduced CD4+ T-cell populations | reduced glomerulonephritis | prolonged life span |
